In brackets after ≈: the same amount, converted by molar mass. Activity calls are given as the source filed them. The calls are words filed in the database; no cut-off is given here.
Columns and labels:
[1] = test system: Micrococcus luteus; experiment: Antibacterial activity against Micrococcus luteus MTCC 2470 at 1.4 to 300 ug/ml after 24 hr by microtiter broth dilution method; format: functional, organism-based
[2] = test system: Nakaseomyces glabratus; experiment: Antifungal activity against Candida glabrata MTCC 3019 after 24 hr by microtiter broth dilution method; format: functional
[3] = test system: Staphylococcus aureus; experiment: Antibacterial activity against Staphylococcus aureus MTCC 96 after 24 hr by microtiter broth dilution method; format: functional
[4] = test system: Candida albicans; experiment: Antifungal activity against Candida albicans MTCC 854 after 24 hr by microtiter broth dilution method; format: functional
[5] = test system: Pseudomonas aeruginosa; experiment: Antibacterial activity against Pseudomonas aeruginosa MTCC 2453 after 24 hr by microtiter broth dilution method; format: functional
[6] = test system: A549; experiment: Cytotoxicity against Homo sapiens (human) A549 cells by tetrazolium-reduction assay; format: functional, cell-based
[7] = test system: [Candida] aaseri; experiment: Antifungal activity against Candida aaseri MTCC 1962 after 24 hr by microtiter broth dilution method; format: functional
[8] = test system: Candida albicans; experiment: Antifungal activity against Candida albicans MTCC 3018 after 24 hr by microtiter broth dilution method; format: functional; settings: MTCC 3018, 24 h
[9] = test system: Candida albicans; experiment: Antifungal activity against Candida albicans MTCC 183 after 24 hr by microtiter broth dilution method; format: functional; settings: MTCC 183, 24 h
[10] = test system: Candida albicans; experiment: Antifungal activity against Candida albicans MTCC 227 after 24 hr by microtiter broth dilution method; format: functional; settings: MTCC 227, 24 h
[11] = test system: Candida albicans; experiment: Antifungal activity against Candida albicans MTCC 3958 after 24 hr by microtiter broth dilution method; format: functional; settings: MTCC 3958, 24 h
[12] = test system: Raoultella planticola; experiment: Antibacterial activity against Raoultella planticola MTCC 530 at 1.4 to 300 ug/ml after 24 hr by microtiter broth dilution method; format: functional, organism-based
[13] = test system: Escherichia coli; experiment: Antibacterial activity against Escherichia coli MTCC 739 at 1.4 to 300 ug/ml after 24 hr by microtiter broth dilution method; format: functional, organism-based
[14] = test system: Pichia kudriavzevii; experiment: Antifungal activity against Pichia kudriavzevii MTCC 3020 after 24 hr by microtiter broth dilution method; format: functional
[15] = test system: Pichia sporocuriosa; experiment: Antifungal activity against Issatchenkia hanoiensis MTCC 4755 after 24 hr by microtiter broth dilution method; format: functional
[16] = test system: Candida albicans; experiment: Antifungal activity against Candida albicans MTCC 3017 after 24 hr by microtiter broth dilution method; format: functional
[17] = test system: Bacillus subtilis; experiment: Antibacterial activity against Bacillus subtilis MTCC 121 after 24 hr by microtiter broth dilution method; format: functional
[18] = test system: Candida albicans; experiment: Antifungal activity against Candida albicans MTCC 1637 after 24 hr by microtiter broth dilution method; format: functional
[19] = test system: MCF7; experiment: Cytotoxicity against Homo sapiens (human) MCF7 cells by tetrazolium-reduction assay; format: functional, cell-based
[20] = test system: Candida parapsilosis; experiment: Antifungal activity against Candida parapsilosis MTCC 1744 after 24 hr by microtiter broth dilution method; format: functional
[21] = test system: N2a; experiment: Cytotoxicity against Mus musculus (mouse) Neuro2a cells by tetrazolium-reduction assay; format: functional, cell-based
[22] = test system: MDA-MB-231; experiment: Cytotoxicity against Homo sapiens (human) MDA-MB-231 cells by tetrazolium-reduction assay; format: functional, cell-based
[23] = test system: Staphylococcus aureus; experiment: Antibacterial activity against Staphylococcus aureus MLS16 MTCC 2940 after 24 hr by microtiter broth dilution method; format: functional
[24] = test system: HepG2; experiment: Cytotoxicity against Homo sapiens (human) HepG2 cells by tetrazolium-reduction assay; format: functional, cell-based
[25] = test system: HeLa; experiment: Cytotoxicity against Homo sapiens (human) HeLa cells by tetrazolium-reduction assay; format: functional, cell-based
[26] = test system: Candida albicans; experiment: Antifungal activity against Candida albicans MTCC 7315 after 24 hr by microtiter broth dilution method; format: functional; settings: MTCC 7315, 24 h
[27] = test system: Nakaseomyces glabratus; experiment: Antifungal activity against Candida glabrata MTCC 3019 at 1.4 to 300 ug/ml after 24 hr by microtiter broth dilution method; format: functional, organism-based
[28] = test system: Candida albicans; experiment: Antifungal activity against Candida albicans MTCC 3958 at 1.4 to 300 ug/ml after 24 hr by microtiter broth dilution method; format: functional, organism-based
[29] = test system: Candida albicans; experiment: Antifungal activity against Candida albicans MTCC 183 at 1.4 to 300 ug/ml after 24 hr by microtiter broth dilution method; format: functional, organism-based
[30] = test system: Candida albicans; experiment: Antifungal activity against Candida albicans MTCC 227 at 1.4 to 300 ug/ml after 24 hr by microtiter broth dilution method; format: functional, organism-based
[31] = test system: Candida albicans; experiment: Antifungal activity against Candida albicans MTCC 854 at 1.4 to 300 ug/ml after 24 hr by microtiter broth dilution method; format: functional, organism-based
[32] = test system: Candida albicans; experiment: Antifungal activity against Candida albicans MTCC 3017 at 1.4 to 300 ug/ml after 24 hr by microtiter broth dilution method; format: functional, organism-based
[33] = test system: [Candida] aaseri; experiment: Antifungal activity against Candida aaseri MTCC 1962 at 1.4 to 300 ug/ml after 24 hr by microtiter broth dilution method; format: functional, organism-based
[34] = test system: Candida albicans; experiment: Antifungal activity against Candida albicans MTCC 7315 at 1.4 to 300 ug/ml after 24 hr by microtiter broth dilution method; format: functional, organism-based
[35] = test system: Candida albicans; experiment: Antifungal activity against Candida albicans MTCC 3018 at 1.4 to 300 ug/ml after 24 hr by microtiter broth dilution method; format: functional, organism-based
[36] = test system: Candida parapsilosis; experiment: Antifungal activity against Candida parapsilosis MTCC 1744 at 1.4 to 300 ug/ml after 24 hr by microtiter broth dilution method; format: functional, organism-based
[37] = test system: Candida albicans; experiment: Antifungal activity against Candida albicans MTCC 1637 at 1.4 to 300 ug/ml after 24 hr by microtiter broth dilution method; format: functional, organism-based
[38] = Yamadazyma aaseri, MTCC 1962, 24 h

SMILES | Activity [1] | MIC ([3]; MTCC 96, 24 h) [µg/mL] | MIC ([5]; MTCC 2453, 24 h) [µg/mL] | Activity [6] | MIC [7, 38] [µg/mL] | MIC [8] [µg/mL] | MIC [9] [µg/mL] | MIC [10] [µg/mL] | MIC [11] [µg/mL] | Activity [12] | Activity [13] | MIC ([14]; MTCC 3020, 24 h) [µg/mL] | MIC ([15]; MTCC 4755, 24 h) [µg/mL] | MIC [16] | Activity [21] | IC50 [22] [µM] | MIC ([23]; MLS16 MTCC 2940, 24 h) [µg/mL] | Activity [24] | Activity [25] | MIC [26] [µg/mL] | also measured
CCCCCCCC(=O)Oc1ccc(/C=N/Cc2cccnc2)cc1 | inactive | 37.5 (≈ 111 µM) | 300 (≈ 886 µM) | inactive | 300 (≈ 886 µM) | 300 (≈ 886 µM) | 150 (≈ 443 µM) | 150 (≈ 443 µM) | 150 (≈ 443 µM) | inactive | inactive | 150 (≈ 443 µM) | 300 (≈ 886 µM) | inactive | inactive | 15.8 | 300 (≈ 886 µM) | inactive | inactive | 150 (≈ 443 µM) | MIC ([2]; MTCC 3019, 24 h): 150 µg/mL (≈ 443 µM); MIC [4]: inactive; MIC ([17]; MTCC 121, 24 h): 300 µg/mL (≈ 886 µM); MIC [18]: inactive; IC50 ([19]; Homo sapiens, MCF7, read-out: IC50): 12 µM; MIC [20]: inactive
CCCCCCCCCCCCCCCC(=O)Oc1ccc(/C=N/Cc2cccnc2)cc1 | inactive |  |  | inactive |  |  |  |  |  | inactive | inactive |  |  |  | inactive |  |  | inactive | inactive |  | Activity [27]: inactive; Activity [28]: inactive; MIC [3]: inactive; Activity [29]: inactive; MIC [5]: inactive; Activity [30]: inactive; Activity [31]: inactive; Activity [32]: inactive; Activity [33]: inactive; Activity [34]: inactive; MIC [17]: inactive; MIC [23]: inactive; Activity [35]: inactive; Activity [36]: inactive; Activity [37]: inactive
CCCCCCC(=O)Oc1ccc(/C=N/Cc2cccnc2)cc1 | inactive | 37.5 (≈ 116 µM) | 37.5 (≈ 116 µM) | inactive | 75 (≈ 231 µM) | 75 (≈ 231 µM) | 300 (≈ 925 µM) | 75 (≈ 231 µM) | 150 (≈ 462 µM) | inactive | inactive | 75 (≈ 231 µM) | 75 (≈ 231 µM) | inactive | inactive | 15 | 150 (≈ 462 µM) | inactive | inactive | 150 (≈ 462 µM) | MIC [2]: inactive; MIC ([4]; MTCC 854, 24 h): 300 µg/mL (≈ 925 µM); MIC ([17]; MTCC 121, 24 h): 300 µg/mL (≈ 925 µM); MIC ([18]; MTCC 1637, 24 h): 150 µg/mL (≈ 462 µM); IC50 ([19]; mcf7): Not Active; MIC ([20]; Lodderomyces parapsilosis, MTCC 1744, 24 h): 300 µg/mL (≈ 925 µM)
CCCCCCCCCCCCCC(=O)Oc1ccc(/C=N/Cc2cccnc2)cc1 | inactive | 75 (≈ 177 µM) |  | inactive |  | 300 (≈ 710 µM) | 300 (≈ 710 µM) | 300 (≈ 710 µM) | 300 (≈ 710 µM) | inactive | inactive |  |  |  | inactive | 26.6 | 75 (≈ 177 µM) | inactive | inactive | 300 (≈ 710 µM) | MIC [2]: inactive; MIC ([4]; MTCC 854, 24 h): 300 µg/mL (≈ 710 µM); MIC [5]: inactive; MIC [7]: inactive; MIC [14]: inactive; MIC [15]: inactive; MIC ([16]; MTCC 3017, 24 h): 300 µg/mL (≈ 710 µM); MIC [17]: inactive; MIC ([18]; MTCC 1637, 24 h): 300 µg/mL (≈ 710 µM); IC50 ([19]; mcf7): Not Active; MIC [20]: inactive
